Laboratory results from the supplement of paper PMC12532568.
Counter-ions that a name gives are not always drawn.

System: Danio rerio larvae Tg(actc1b:ZsGreen-LC3), 3 dpf
Test: LC3 puncta relative area vs vehicle (mean) (log2 fold change); higher = more autophagy
Conditions: treatment time 16 h
Procedure: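 Transgenic ZsGreen-LC3 zebrafish larvae (2 dpf) were treated for 16 h with natural bioactives at 10, 50, 100 or 250 µM. Skeletal-muscle LC3 puncta area was measured by high-content imaging with or without 4 h of 100 mM NH4Cl, normalised to vehicle, and reported as the mean log2 fold change over 4–21 larvae.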

SMILES	LC3 puncta (log2) (NH4Cl: + NH4Cl, 10 µM)	LC3 puncta (log2) (NH4Cl: + NH4Cl, 50 µM)	LC3 puncta (log2) (NH4Cl: + NH4Cl, 100 µM)	LC3 puncta (log2) (NH4Cl: + NH4Cl, 250 µM)	LC3 puncta (log2) (NH4Cl: - NH4Cl, 10 µM)	LC3 puncta (log2) (NH4Cl: - NH4Cl, 50 µM)	LC3 puncta (log2) (NH4Cl: - NH4Cl, 100 µM)	LC3 puncta (log2) (NH4Cl: - NH4Cl, 250 µM)
CCOC(=O)CC(O)(CC(=O)OCC)C(=O)OCC [Triethyl citrate]	0.559	0.524	1.06	1.44	0.227	0.572	0.551	0.957
C[C@@H](O)CC(=O)O [(R)-3-Hydroxybutyric acid]	0.877	0.689	0.929	1.01	0.111	-0.78	0.265	0.324
C[n+]1cccc(C(=O)[O-])c1 [Trigonelline]	0.266	0.266	0.112	–	0.202	0.619	0.435	-0.0876
C/C1=C2N=C(/C=C3N=C(/C(C)=C4\[N-]C(C(CC(N)=O)C4(C)CCC(=O)NCC(C)OP(=O)([O-])OC4C(CO)OC(n5cnc6cc(C)c(C)cc65)C4O)C4(C)N=C1C(CCC(N)=O)C4(C)CC(N)=O)C(CCC(N)=O)C\3(C)C)C(CCC(N)=O)C/2(C)CC(N)=O.[CH3-].[Co+3] (stereo unspecified) [Methylcobalamin]	0.507	0.557	0.386	-0.454	-0.125	-0.236	0.239	-0.503
NC(=O)c1cccnc1 [Nicotinamide NAM]	0.821	0.328	0.663	0.606	-0.196	-0.178	0.12	-0.631
C/C=C\C=C\C(=O)O [(2E,4Z)-2,4-hexadienoic acid]	0.772	1.14	1.21	0.824	0.44	-0.191	1.17	-0.266
NC(=O)c1ccc[n+]([C@@H]2O[C@H](COP(=O)([O-])O)[C@@H](O)[C@H]2O)c1 [Nicotinamide mononucleotide]	1.01	0.775	0.349	0.19	-0.0834	-0.119	-0.518	-0.271
O=C(O)CCSCCC(=O)O [3,3'-thiodipropionic acid]	0.309	0.728	-0.445	0.629	0.0135	0.045	-0.0204	-0.062
CC(C)C[C@H](N)C(=O)O [L-Leucine]	0.433	0.183	0.128	-0.405	-0.25	-0.762	-0.689	-0.726
CC(=O)C(C)=O [Biacetyl]	0.347	0.581	0.946	0.981	0.0128	0.343	0.699	0.218
Cc1ccc(C(C)C)c(O)c1 [Thymol]	0.947	1.4	1.68	1.55	0.0897	0.575	0.869	1.65
C/C1=C2/[N-]C([C@H](CC(N)=O)[C@@]2(C)CCC(=O)NCC(C)OP(=O)([O-])OC2C(O)[C@@H](n3cnc4cc(C)c(C)cc43)O[C@@H]2CO)[C@]2(C)N=C(/C(C)=C3N=C(/C=C4N=C1[C@@H](CCC(N)=O)C\4(C)C)[C@@H](CCC(N)=O)[C@]\3(C)CC(N)=O)[C@@H](CCC(N)=O)[C@]2(C)CC(N)=O.[CH2-]C1O[C@H](n2cnc3c(N)ncnc32)[C@@H](O)[C@H]1O.[Co+3] (stereo partly specified) [Coenzyme B12]	0.47	0.446	0.394	0.833	0.178	-0.299	0.292	0.281
O=C1C[C@H](O)[C@@H](CO)O1 [2-deoxyribonolactone]	0.749	0.4	0.746	0.616	0.195	-0.131	0.251	-0.0832
CCCCCCCCCC(=O)[O-].[Na+] [Sodium decanoate]	0.524	-0.00931	-1.55	-0.382	0.285	-0.0288	-0.846	0.298
CC(O)CC(=O)O (stereo unspecified) [Sodium 3-hydroxybutyrate]	0.123	0.569	0.8	0.884	0.0599	0.278	0.0997	0.295
CCCCCC=CCC=CCCCCCCCC(=O)O [Linoaleic acid]	0.722	1.36	1.01	–	0.542	0.956	0.433	–
CCCCCCCCCCCCCCCC(=O)O [Palmitic acid]	0.572	0.0741	0.0454	0.114	0.561	-0.136	-0.712	-0.593
CC(=O)CC(=O)O [Lithium acetoacetate]	0.433	0.388	0.24	0.594	0.304	-0.266	-0.279	0.0398
CCCCCCCC(=O)O [Octanoic acid]	0.0521	0.079	0.553	–	-0.257	0.356	0.0532	–
O=C(O)CC(O)C(=O)O (stereo unspecified) [Malic acid]	0.364	0.607	0.449	0.554	-0.0981	-0.0981	-0.0374	-0.0364
Oc1cc(O)c2c(c1)O[C@H](c1ccc(O)c(O)c1)[C@H](O)C2 [(-)-Epicatechin]	0.954	0.317	0.232	0.0319	-0.000662	-0.156	-0.539	-0.492
CC(O)C(=O)O (stereo unspecified) [Lactic acid]	0.558	0.374	0.472	0.345	0.287	-0.151	-0.219	0.079
